Consider seven compounds from US6080791A, “Method of treating a viral condition by inhibiting membrane fusion” (priority 1992, dated 2000).

A short description of one series: in vitro. The following applies: dog, mdck.
Series [1] relates to hemagglutinin-mediated hemolysis of human red blood cells. Put plainly: Hemolysis (HEM) assay. Format: cell-based, C22 influenza virus; human red blood cells. The conditions noted are these: for inhibition at 1000 µM: log conc -3 (M); for inhibition at 100 µM: log conc -4 (M).
The test system of a further series is low pH BHA. Kind of series: SPA POST control (nonspecific quenching). Also noted: species or system C22 / X31 influenza virus (H3N2). The protocol: The compounds being screened by SPA are present during scintillation counting. Some of the chemicals, particularly those that are highly colored, quench the detection of radioactivity. A control ("POST") distinguishes whether apparent inhibition arises from inhibition of the conformational change or from nonspecific effects. The test compound is added to a sample of BHA that had previously been acidified and reneutralized. The mixture is then precipitated as usual. Since the BHA treated in this manner is known to be in the low pH conformation, a reduction in measurable cpm compared to controls with ligand omitted proves the compound interferes with the detection system.
^3 H-Leu BHA was diluted to 10,000 cpm (counts per minute) per 200 μl in MSSH buffer (10 mM HEPES, 10 mM MES, 10 mM succinate, 0.10 M NaCl, pH 7.0) containing 0.1% NP40. Protein was incubated with the specified concentration of trial compound for 25 minutes at RT. The same volume of solvent used to dissolve the compound was added to control samples and the final concentration of DMSO in all solutions was 0.67% v/v. A predetermined amount of 1N HAc was added to bring the reactions to the appropriate pH (usually pH 5.0). Following a 5 minute (unless specified otherwise) incubation at RT, reactions were reneutralized with 1N NaOH. For POST controls, compounds were added to the appropriate concentration after reneutralization. 200 μL aliquots of the protein solution were added to scintillation vials containing 100 μl protein A-SPA beads (Amersham), 5% fetal bovine serum (FBS), and antibody. Vials were incubated overnight at RT with constant shaking. Each reaction used 10 μl of fusion peptide antiserum diluted 1:10 with 50% glycerol. Cpm were detected in a Beckman LS3801 scintillation counter without addition of liquid scintillant.
Apparent inhibition due to nonspecific effects was quantitated from the POST controls with the equation:
observed cpm=true cpm*quench factor

Series [2] deals with hemagglutinin (BHA), fusion peptide exposure (Influenza A virus (A/X-31(H3N2)), UniProt P03438). Format: biochemical, C22 / X31 influenza virus (H3N2).
Series [3] concerns C22 virus in MDCK2 cells.
Series [4] deals with C22 BHA (Influenza A virus (A/X-31(H3N2)), UniProt P03438). Format: biochemical.
The target in series [5] is BHA (Influenza A virus (A/X-31(H3N2)), UniProt P03438). Type of series: biochemical, C22 / X31 influenza virus (H3N2). The conditions noted are these: 1 mM.
The next series addresses HIV-1 fusion protein (Human immunodeficiency virus type 1 group M subtype B, UniProt P04578). Kind of series: Inhibition of fusion mediated by the HIV-1 fusion protein. Format: cell-based.
The next series relates to hemoglobin. Kind of series: Hb control (quenching of OD570 of hemoglobin). Also noted: species or system human.
Series [6] has as its system C22 virus in MDCK2 cells. Kind of series: microbe, parasite or virus in culture. The following applies: unidentified influenza virus.
Series [7] relates to influenza-mediated syncytia formation, CV-1 cells.
Series [8] deals with T1, hemagglutinin (Influenza A virus (A/X-31(H3N2)), UniProt P03438).
T1 construct: HA1 and HA2 cleaved from precursor HA0
Kind of series: Binding site by crystallography (preliminary).

The conditions of series [9]: 1 mM. The protocol: Synthesis, purification, and characterization of selected compounds are summarized below. Stock solutions were prepared fresh daily. All solutions of the test compounds were prepared in dimethyl-sulfoxide (DMSO).
The test system of series [10] is influenza-mediated syncytia formation, CV-1 cells. Kind of series: cells. The conditions noted are these: unidentified influenza virus, CV-1, read-out: IC50 syncytia.
The mark [11] stands for this setting: unidentified influenza virus, Erythrocyte, Table 7, read-out: HEM, negative log of IC50 (converted).
The mark [12] stands for this setting: unidentified influenza virus, Erythrocyte, 0.25 h, Table 6, 10^-3 = 1 mM, low pH 15 minutes, read-out: IC50 hemolysis.
Setting [13] is: unidentified influenza virus, Erythrocyte, read-out: hemolysis % ↓ OD.
The mark [14] stands for this setting: MDCK2, 15 h, read-out: infectivity % inhibition.
Setting [15] is: MDCK2, read-out: IC50 infectivity.
Setting [16] is: MDCK2, read-out: INF, negative log of IC50 (converted).

Like-named read-outs stand apart in the source and are kept apart here.

Method for in vitro: The ELISA-based assay described below (EIA antiviral assay) was used to measure antiviral activity. Cell viability was measured in parallel to distinguish inhibition of viral replication from toxicity.
Infections of MDCK2 cells with virus, compounds, and DMSO were set up identically as for the EIA assay. Following the 15 hour incubation, test compounds were washed away with PBS. 50 μl of MDCK2 growth media and 25 μl 2 mg/ml 3-(4,5-dimethylthiazol-2-yl)-2,5-diphenyl tetrazolium bromide (Sigma) in PBS were added to each well. Plates were returned to 37° C., 5% CO2 for 4 hrs. Crystals were broken up by vigorous mixing following addition of 80 μl isopropanol/0.04 N HCl. After incubation for 30 mins at RT, OD570 was read on an ELISA reader. % Inhibition is the % reduction of OD570 in the wells infected with compound compared to otherwise identical samples with compound omitted.

By IC50 is commonly meant the point on the concentration scale where inhibition reaches its midpoint. Consider `O=C1C=CC(=O)C2C3C=CC(C3)C12` (stereo not shown) [Compound 83K, 4A,5,8,8A-tetrahydro-5,8-methano-1,4-naphthoguinone], for which the cytotoxicity at 15 h, 1 µM in “in vitro” turned out to be 3.4 ± 10.5%. The cytotoxicity at 15 h, 10 µM in “in vitro” came out at 7.3 ± 8.9%. Also, the cytotoxicity at 15 h, 100 µM in “in vitro” stood at 46.4 ± 15.1%. The cytotoxicity at 15 h, 1000 µM in the series “in vitro” is 92.9 ± 7.4%. Also, in series [1], the “inhibition of hemolytic activity” value is recorded as “apparently inhibited hemolytic activity”. In addition, the IC50 in [1] (setting [11]) was 100 to 1000 µM. In addition, the “Inhibition of the POST controls” value is reported as 26.4% in the series with low pH BHA (10 mM) and at most 4% in the series with low pH BHA (all other concentrations (below 10 mM)). In addition, the “% inhibition, POST control” value in the series with low pH BHA (log conc -3 (M)) is -5.3 ± 2.1%; with low pH BHA (log conc -4 (M)) it was 3.0%; in the series on low pH BHA (log conc -5 (M)), 0.8 ± 12.7%; in the series on low pH BHA (log conc -6 (M)) it was -6.2%. Further, the “% inhibition, sample (Table 1)” value in series [2] is reported as 49.1 ± 15.0%. The “inhibition at 10^-5 M” value in series [2] (10^-5 M) was “negligible inhibition”. The “infectivity in Table 6” value in the series with C22 virus in MDCK2 cells [3] is recorded as “toxic”. In the series on C22 virus in MDCK2 cells [3], the “INF, words (Table 7)” value is “toxic”. Moreover, the entries for the “inhibition at low pH” value in [4] (10 seconds at pH 5.0) and in [4] (10 minutes at pH 5.0) were 73% and 43%, respectively. In addition, the “fraction of its maximal inhibition of fusion peptide exposure maintained” value in [4] (after 10 minutes at pH 5.0, C22 BHA) is given as 60%. Besides, in series [5], the “reversibility of inhibition by dilution” value was “reversible by dilution”.
For `O=C1C=CC(=O)c2ccccc21` [Compound 90, 1,4-naphthoquinone], the IC50 is 2 µM at HIV-1 fusion protein; 1000 µM in series [1] (setting [12]); 1000 µM in series [1] (setting [11]); 10 µM in the series with C22 virus in MDCK2 cells [6] (setting [15]); 10 µM with C22 virus in MDCK2 cells [6] (setting [16]). Besides, the cytotoxicity at 15 h, 1 µM in “in vitro” was -6.7 ± 7.3%. Moreover, in “in vitro”, the cytotoxicity at 15 h, 10 µM is 33 ± 9.9%. For the same compound, the cytotoxicity at 15 h, 100 µM in “in vitro” came to 96.8 ± 3.8%. In addition, the inhibition at 1000 µM in [1] (setting [13]) was 90.3%. In addition, the inhibition at 100 µM in series [1] (setting [13]) is 33.1%; with C22 virus in MDCK2 cells [6] (setting [14]) it was 96.9%. Further, the inhibition at 10 µM in series [1] (unidentified influenza virus, Erythrocyte, log conc -5 (M), read-out: hemolysis % ↓ OD) came to 4.7%; in the series with C22 virus in MDCK2 cells [6] (setting [14]) it was 81.7 ± 2.2%. The “Hb control % ↓ OD” value in the series on hemoglobin (log conc -3 (M)) worked out at 68.1%; with hemoglobin (log conc -4 (M)), 57.1%; in the series on hemoglobin (log conc -5 (M)) it was 24.9%. Further, the results for the “% inhibition, POST control” value in the series on low pH BHA (log conc -3 (M)), with low pH BHA (log conc -4 (M)) and in the series on low pH BHA (log conc -5 (M)) were 68.2%, 30.8% and 4.6%, respectively. Also, the inhibition at 1 µM in the series with C22 virus in MDCK2 cells [6] (setting [14]) is -3.3 ± 2.4%. Also, the “syncytia, Table 6” value in series [7] (Table 6) was “morph”. For the same compound, the “binding site (preliminary crystallographic results)” value in series [8] was “binding to hemagglutinin at a site in the hinge region of the trimer”.
Consider `Oc1ccc(Cl)c2ccccc12` [Compound 101, 4-chloro-1-naphthol], for which the “solubility at 1 mM” value in [9] is “only partially soluble at 1 mM”. Besides, the cytotoxicity at 15 h, 100 µM in “in vitro” was 97.4%. In [1] (setting [13]), the inhibition at 1000 µM amounted to 112%. Further, in the series with hemoglobin (log conc -3 (M)), the “Hb control % ↓ OD” value is 93.0%. Moreover, the “inhibition in the SPA assay” value in series [2] (1 μM-1 mM) was “showed no inhibition”. In addition, the “activity note in Table 7” value in series [2] (Table 7) is “inactive”.
As to `Oc1ccc(O)c(-c2ccccc2)c1` [Compound 105, phenylhydroquinone], the “solubility at 1 mM” value in series [9] is “only partially soluble at 1 mM”. Further, the cytotoxicity at 15 h, 100 µM in the series “in vitro” worked out at 100%. In the series with C22 virus in MDCK2 cells [3], the “infectivity in Table 6” value is “toxic” and the “INF, words (Table 7)” value is “toxic”.
Turning to `COc1ccc(O)c2ccccc12` [Compound 107, 4-methoxy-1-naphthol], the “solubility at 1 mM” value in series [9] is recorded as “only partially soluble at 1 mM”. In addition, inhibition on HIV-1 fusion protein was half-maximal at 50 µM (IC50). Further, the cytotoxicity at 15 h, 100 µM in “in vitro” is 96.9%. The “hemolysis column of Table 6, words” value in series [1] (Table 6) is “quench”. Further, in [1] (Table 7), the “HEM, words (Table 7)” value is recorded as “quench”. For the same compound, the inhibition at 1000 µM in [1] (setting [13]) worked out at 104%. Moreover, the “Hb control % ↓ OD” value in the series with hemoglobin (log conc -3 (M)) came to 92.5%. Besides, in the series on C22 virus in MDCK2 cells [3], the “infectivity in Table 6” value was “toxic” and the “INF, words (Table 7)” value is on record as “toxic”.
`Oc1ccc(O)c2ccccc12` [Compound 110, 1,4-dihydroxynaphthalene]: the “solubility at 1 mM” value in series [9] is given as “only partially soluble at 1 mM”. Further, in “in vitro”, the cytotoxicity at 15 h, 1 µM was found to be 5 ± 12.5%; the cytotoxicity at 15 h, 10 µM was 19.2 ± 15.6%; the cytotoxicity at 15 h, 100 µM was determined as 98.3 ± 1.2%; the cytotoxicity at 15 h, 1000 µM worked out at 96.9 ± 0.4%. Moreover, in the series with C22 virus in MDCK2 cells [6] (setting [14]), the inhibition at 1 µM is -9.8 ± 0.6%, the inhibition at 10 µM was 61.1 ± 50.8%, the inhibition at 100 µM came to 91.9 ± 11.5% and the inhibition at 1000 µM amounted to 102%.
Turning to `O=C1C=C(O)C(=O)c2ccccc21` [Compound 120, 2-hydroxy-1,4-naphthoquinone], in “in vitro”, the cytotoxicity at 15 h, 1 µM was determined as 0.5 ± 0.3%. Also, the cytotoxicity at 15 h, 10 µM in “in vitro” is -6 ± 5%. Moreover, the cytotoxicity at 15 h, 100 µM in the series “in vitro” is -7 ± 4.4%. Moreover, the “inhibition of hemolytic activity” value in series [1] is listed as “did not”. Besides, the IC50 was over 100 µM in [1] (setting [12]); over 100 µM in series [1] (setting [11]); over 1000 µM in the series with C22 virus in MDCK2 cells [6] (setting [15]); over 1000 µM in the series with C22 virus in MDCK2 cells [6] (setting [16]); over 10 µM in series [10]. Besides, the inhibition at 100 µM in series [1] (setting [13]) was 6.2%; in the series with C22 virus in MDCK2 cells [6] (setting [14]), -2.3 ± 3.1%. Besides, the “Hb control % ↓ OD” value with hemoglobin (log conc -4 (M)) was 4.4%. Besides, in the series on C22 virus in MDCK2 cells [6] (setting [14]), the inhibition at 1 µM was found to be 7.1 ± 6.7%. Besides, the inhibition at 10 µM in the series with C22 virus in MDCK2 cells [6] (setting [14]) came to 4.7 ± 0.9%. The “inhibition of syncytia formation” value in series [7] (10 μM) is reported as “Significant inhibition was not observed”.
